The values below come from US8394779B2, “Methods of modulating angiogenesis via TRPV4” (Children's Medical Center Corporation, priority 2008, dated 2013).

In data set [1] the target is T1, TRPV4 channels (Bos taurus, UniProt A0A8F4X677).
T1 construct: endogenous in cells; host or cells: bovine CE cells
The data set is described as follows: Calcium imaging with TRPV channel activator. In kind it is cell-based. Conditions: bovine CE cells, 2 μM. As to the method: (§1) CE cells cultured on fibronectin-coated 6 well UNIFLEX™ (FLEXCELL® International) plates for 24 hours were subjected to uniaxial cyclic stretch (10% elongation; 1 Hz frequency) for 1-2 h using a FLEXERCELL® TENSION PLUS™ System (FLEXCELL® International). In some experiments, CE cells were plated on fibronectin-coated 6 well BIOFLEX® (FLEXCELL® International) for lh and subjected to static stretch (15% elongation) for 1-15 min. Control cells were maintained under identical conditions in the absence of strain application. […] Images were acquired for every 4 seconds and analyzed using IP lab software and Microsoft Excel as described in Matthews, et. al. (2006) (J. Cell Sci., 119:508-518). Calcium imaging with TRPV channel activators was performed on cells cultured on MatTek glass bottomed dishes on LEICA® Confocal Microscope and analyzed using LEICA® software and MICROSOFT® EXCEL®. siRNA knock down of TRPV channels: smart pool siRNAs (10 nM) of TRPV2, TRPV4 (both from Dharmacon), TRPC1 (AMBION®) or control (QIAGEN®) siRNAs was transfected into CE cells using SILENTFECT™ reagent (BIORAD®) as described in Mammoto et. al. (2007) (J. Cell Sci., 120:456-467). […] The knock down of TRPV channel expression was assessed using RT-PCR with species-specific primers and Western blotting. […]

In data set [2] the target is T2, TRPV4 channels (Homo sapiens, UniProt Q9HBA0).
T2 construct: host or cells: human dermal microvascular endothelial cells (HMVECs)
Description: Calcium imaging with TRPV channel activator. Conditions: human CE cells, 2 μM. In kind it is cell-based. As to the method:
as §1

The test system of a further data set is TRPV4-EGFP. The data set is described as follows: Whole-cell patch clamp of bovine CE cells transfected with TRPV4-EGFP. In kind it is cell-based. To be noted: 4 μM. As for the experimental part:
One day after bovine CE cells were transfected with TRPV4-EGFP, they were plated on gelatin-coated glass coverslips and allowed to grow for ˜24 h prior to recording. Cells were recorded in the whole-cell mode using borosilicate glass pipettes (1-3 MΩ) containing: (in mM) 120 CsMeSO3, 10 EGTA, 2 MgCl2, 10 HEPES; pH and osmolarity were adjusted with CsOH or HMeSO3, as needed, to 7.2 (23° C.) and ˜300 mOsm, respectively. Cells were bathed in a solution containing (in mM): 138 NaCl, 5 KCl, 1.8 CaCl2, 1 MgCl2, 10 HEPES; pH and osmolarity were adjusted with NaOH or HCl, as needed, to 7.4 (23° C.) and ˜310 mOsm, respectively. Cells were held at −40 mV for 3-5 min to allow for intracellular dialysis. Bath superfusion was stopped prior to initiating the recording of currents resulting from the indicated voltage protocol applied every 5 s. Immediately before use, a 4-α-PDD stock solution (2 mM in EtOH, on ice) was diluted 1:50 in bath solution under vortex and 50 μl was subsequently added to a still bath (0.5 ml) by pipette (final concentrations of 4 μM 4-α-PDD and 0.2% EtOH) and mixed by 3 gentle up/down pipette strokes. […]
In general terms: Patch clamp records ionic current or voltage across a cell membrane.

Data set [3] relates to VEGF. To be noted: cited from earlier work.
For data set [4] the following is noted: mice; cited from earlier work.
In another data set the test system is bovine CE cells. The data set is described as follows: Cyclic strain-induced CE cell reorientation (alignment). The data set is classed as cell-based. As for the experimental part:
as §1

In data set [5] the test system is cytosolic calcium in CE cells. The data set is described as follows: Mechanical strain-induced calcium influx, FLUO-4 calcium imaging. In kind it is cell-based, bovine. To be noted: strain 15%, 3-4 sec, gadolinium chloride 25 μM, siRNA 10 nM. As to the method: as §1
In data set [6] the test system is β1 integrin. The data set is described as follows: Strain-induced β1 integrin activation (GST-FNIII8-11 / 12G10 binding, T788/789 phosphorylation). The data set is classed as cell-based. To be noted: bovine CE cells, GST-FNIII8-11 and 12G10 binding. As for the experimental part: (§2) Western blotting were performed according to methods published in Mammoto et. al. (2007) (J. Cell Sci., 120:456-467). Membranes containing transferred protein were blocked in 3% BSA/TBST for 1 h and incubated overnight with primary antibodies against AKT and phospho Ser-473 AKT (1:1000), phospho-Thr 788/789 of […] integrin cytoplasmic tail (1:1000), ERK1/2 and phospho ERK1/2 (1:1000), FAK and phospho FAK-pY397 (1:1000), actin (1:1000) and TRPV4 (1:1000) at 4° C. The membranes were subsequently washed incubated with HRP-conjugated secondary antibodies (1:5000) for 1 h and washed and incubated with SUPERSIGNAL® West Pico ECL reagent from Pierce Biotechnology Inc. (USA) and exposed to Kodak X-ray film (SIGMA ALDRICH®).
(§3) β1 integrin activation was measured using a glutathione S-transferase (GST) fusion protein consisting of FN III repeat 8-11 domains or 12G10 antibodies (Orr, A. W. et. al., 2006, Mol. Biol. Cell 17:4686-4697). Briefly, cells subjected to mechanical stretch were incubated with either 5 μg/ml of GST-FN III8-11 protein or 12G10 antibodies in PBS containing Ca^2+ and Mg^2+ for 30 min at 37° C., washed and lysed in SDS-sample buffer. The samples were separated on SDS-PAGE and the bound reagents were assessed on Western blots using anti GST-antibodies and HRP-conjugated secondary antibodies.

For data set [7], the system named is β1 integrin. Description: Strain-induced β1 integrin activation (GST-FNIII8-11 binding, T788/789 phosphorylation). In kind it is cell-based. To be noted: human CE cells; 30 min pretreatment. As to the method: as §2, §3
The test system of another data set is PI3K. Description: Strain-induced PI3K activity (GFP-AKT-PH translocation, AKT Ser-473 phosphorylation). In kind it is cell-based, bovine. Conditions: mechanical strain 15%.
Data set [8] concerns cytosolic calcium in CE cells. The data set is described as follows: Calcium influx on direct force application to cell surface integrins. The data set is classed as cell-based, bovine. To be noted: within 5 to 50 msec.
The subject of data set [9] is cytosolic calcium in CE cells. Conditions: within 2-5 sec; cited from earlier work.
The subject of data set [10] is VEGF. To be noted: in vivo; cited from earlier work.

Entries after “also recorded” stand apart in the source; their conditions may differ. Where no end group is shown, it is not given here. [ ]: non-standard residue; d: D form.

T2 sequence (Q9HBA0 whole entry): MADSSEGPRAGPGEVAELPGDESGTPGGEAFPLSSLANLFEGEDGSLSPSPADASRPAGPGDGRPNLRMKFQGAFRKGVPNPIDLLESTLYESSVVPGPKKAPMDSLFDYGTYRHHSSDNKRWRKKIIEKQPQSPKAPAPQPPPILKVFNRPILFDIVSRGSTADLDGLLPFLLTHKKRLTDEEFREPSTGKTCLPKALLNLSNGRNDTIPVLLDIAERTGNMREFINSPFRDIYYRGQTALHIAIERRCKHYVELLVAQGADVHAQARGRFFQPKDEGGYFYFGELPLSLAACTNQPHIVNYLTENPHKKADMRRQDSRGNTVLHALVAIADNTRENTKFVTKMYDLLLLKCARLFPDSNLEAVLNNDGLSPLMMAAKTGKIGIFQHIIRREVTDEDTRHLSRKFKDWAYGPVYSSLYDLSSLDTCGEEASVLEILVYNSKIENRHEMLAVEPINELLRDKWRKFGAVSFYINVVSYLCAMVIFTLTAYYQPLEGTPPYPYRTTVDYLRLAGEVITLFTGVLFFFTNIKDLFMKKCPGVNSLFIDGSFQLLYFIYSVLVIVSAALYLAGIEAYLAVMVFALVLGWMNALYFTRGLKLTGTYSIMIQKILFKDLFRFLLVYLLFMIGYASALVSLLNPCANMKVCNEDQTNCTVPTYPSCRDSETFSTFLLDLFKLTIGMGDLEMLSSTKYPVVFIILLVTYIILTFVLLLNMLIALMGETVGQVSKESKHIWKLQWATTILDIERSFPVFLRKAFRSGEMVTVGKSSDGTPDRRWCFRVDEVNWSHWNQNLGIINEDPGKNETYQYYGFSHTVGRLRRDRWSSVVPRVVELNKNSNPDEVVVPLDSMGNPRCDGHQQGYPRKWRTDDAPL
T1 sequence (A0A8F4X677 1-871): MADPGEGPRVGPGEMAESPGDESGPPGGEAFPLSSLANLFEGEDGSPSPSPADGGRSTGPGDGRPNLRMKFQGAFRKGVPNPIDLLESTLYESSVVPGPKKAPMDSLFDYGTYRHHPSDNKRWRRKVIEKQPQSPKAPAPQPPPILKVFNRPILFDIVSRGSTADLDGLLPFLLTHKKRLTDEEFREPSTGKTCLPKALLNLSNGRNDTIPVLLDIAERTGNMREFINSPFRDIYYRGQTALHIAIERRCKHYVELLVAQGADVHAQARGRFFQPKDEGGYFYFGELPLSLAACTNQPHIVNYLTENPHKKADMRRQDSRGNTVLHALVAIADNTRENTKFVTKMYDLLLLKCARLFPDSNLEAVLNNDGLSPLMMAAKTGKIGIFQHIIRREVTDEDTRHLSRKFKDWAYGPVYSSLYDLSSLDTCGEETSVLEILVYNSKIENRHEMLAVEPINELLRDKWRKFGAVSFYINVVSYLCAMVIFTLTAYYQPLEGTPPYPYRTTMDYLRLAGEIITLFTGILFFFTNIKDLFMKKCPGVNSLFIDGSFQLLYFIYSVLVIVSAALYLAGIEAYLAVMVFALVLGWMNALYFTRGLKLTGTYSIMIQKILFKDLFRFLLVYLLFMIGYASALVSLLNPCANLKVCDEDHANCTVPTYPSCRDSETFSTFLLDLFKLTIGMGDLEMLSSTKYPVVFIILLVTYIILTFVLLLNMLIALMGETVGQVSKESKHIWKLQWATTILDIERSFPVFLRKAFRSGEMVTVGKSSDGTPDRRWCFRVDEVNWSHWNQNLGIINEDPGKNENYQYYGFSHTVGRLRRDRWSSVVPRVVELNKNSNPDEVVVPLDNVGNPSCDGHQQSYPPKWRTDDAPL
Description for PI3K: Cells adherent to flexible ECM substrates and subjected to mechanical stretch were washed in PBS, fixed in 4% paraformaldehyde for 30 min either mounted on glass slides (for visualizing GFP-AKT-PH translocation) or permeabilized with 0.25% TRITON®-X 100/PBS for 5 min for immuno staining. […] Images were acquired on a LEICA® Confocal SP2 microscope and processed using LEICA® software and Adobe Photoshop. GFP-AKT-PH domain translocation to the plasma membrane was quantified measuring either ratio of the perimeter of whole cell membrane and the membrane that contains the GFP-AKT-PH domain or the ratio of GFP fluorescence intensity of translocated GFP-AKT-PH domain and cytosol adjacent to the membrane. […] Statistical differences between experimental groups were determined using the student t-test.
Membranes containing transferred protein were blocked in 3% BSA/TBST for 1 h and incubated overnight with primary antibodies against AKT and phospho Ser-473 AKT (1:1000), phospho-Thr 788/789 of 131 integrin cytoplasmic tail (1:1000), ERK1/2 and phospho ERK1/2 (1:1000), FAK and phospho FAK-pY397 (1:1000), actin (1:1000) and TRPV4 (1:1000) at 4° C. […]

`CCCCCCCCCC(=O)O[C@@H]1[C@@H](C)[C@@]2(O)[C@@H](C=C(CO)C[C@@]3(O)C(=O)C(C)=C[C@@H]23)[C@@H]2C(C)(C)[C@]12OC(=O)CCCCCCCCC` [4-α-PDD, 4-α-phorbol 12, 13-didecanoate]: the calcium signal entry at TRPV4 channels [1] and at TRPV4 channels [2] was “robust calcium signal” throughout. Besides, the “TRPV4 currents, whole-cell clamp” value with TRPV4-EGFP is reported as “robust TRPV4 currents”.

As to `CN(C)c1ccc(/C=C2\C(=O)Nc3ccccc32)cc1` [SU 4312], in the data set with VEGF [3], the vessel formation result is recorded as “blocked”.

Take `CO[C@@H]1[C@H](OC(=O)NC(=O)CCl)CC[C@]2(CO2)[C@H]1[C@@]1(C)O[C@@H]1CC=C(C)C` [TNP-470]: in data set [4], the “diet-induced and genetic obesity” value is “prevent”; the “vascularity in the adipose tissue” value is “reduced”.

Turning to `[Cl][Gd]([Cl])[Cl]` [gadolinium chloride], in the data set on bovine CE cells, the “CE cell reorientation / re-alignment induced by mechanical strain” value is reported as “greatly suppressed”. Besides, the “calcium influx / cytosolic calcium induced by mechanical strain” value in data set [5] is given as “almost completely abolished; also recorded: reduced influx”. Besides, the “β1 integrin activation in response to mechanical strain” value with β1 integrin [6] and in the data set on β1 integrin [7] was “significantly inhibited” throughout. Besides, the “strain-induced translocation of AKT-PH-GFP to the membrane” value in the data set with PI3K is on record as “inhibited”. Moreover, in [8], the “calcium influx on force application to integrins” value is given as “inhibited”. In addition, the “calcium influx on direct force application to β1 integrins (magnetic tweezers)” value in data set [9] is “blocked”.

On to `N.N.N.N.N.N.N.N.N.N.N.N.N.N.[Cl-].[Cl-].[Cl-].[Cl-].[Cl-].[Cl-].[O-2].[O-2].[Ru+3].[Ru+3].[Ru+4]` [ruthenium red], for which the “CE cell reorientation / re-alignment induced by mechanical strain” value in the data set with bovine CE cells is “significantly suppressed; also recorded: inhibits”. In data set [5], the “calcium influx / cytosolic calcium induced by mechanical strain” value is reported as “significantly suppressed; also recorded: reduced influx”. In the data set on CE cells, the “CE cell apoptosis (poly(ADPribosyl) polymerase cleavage)” value was “did not effect” and the “CE cell proliferation (Ki 67 staining)” value is “did not effect”.

With “dRK6: Anti-VEGF hexapeptide RRKRRR (SEQ. ID. NO. 12) ([dR][dR][dK][dR][dR][dR])”, the arthritis severity result in the data set on VEGF [10] was “suppress and mitigate”.
